Tests used:
Cholinesterase [1] = biological target: Cholinesterase (Equus caballus, UniProt P81908)
Description: Inhibition of equine serum BuchE

Acetylcholinesterase [2] = biological target: Acetylcholinesterase (Electrophorus electricus, UniProt O42275)
Description: Inhibition of electric eel AchE

Acetylcholinesterase [3] = biological target: Acetylcholinesterase (Homo sapiens, UniProt P22303); experiment: Inhibition of AchE
Cholinesterase [4] = biological target: Cholinesterase (Homo sapiens, UniProt P06276); experiment: Inhibition of BuchE
Sequence of Cholinesterase (Homo sapiens, UniProt P06276) (P06276 whole entry): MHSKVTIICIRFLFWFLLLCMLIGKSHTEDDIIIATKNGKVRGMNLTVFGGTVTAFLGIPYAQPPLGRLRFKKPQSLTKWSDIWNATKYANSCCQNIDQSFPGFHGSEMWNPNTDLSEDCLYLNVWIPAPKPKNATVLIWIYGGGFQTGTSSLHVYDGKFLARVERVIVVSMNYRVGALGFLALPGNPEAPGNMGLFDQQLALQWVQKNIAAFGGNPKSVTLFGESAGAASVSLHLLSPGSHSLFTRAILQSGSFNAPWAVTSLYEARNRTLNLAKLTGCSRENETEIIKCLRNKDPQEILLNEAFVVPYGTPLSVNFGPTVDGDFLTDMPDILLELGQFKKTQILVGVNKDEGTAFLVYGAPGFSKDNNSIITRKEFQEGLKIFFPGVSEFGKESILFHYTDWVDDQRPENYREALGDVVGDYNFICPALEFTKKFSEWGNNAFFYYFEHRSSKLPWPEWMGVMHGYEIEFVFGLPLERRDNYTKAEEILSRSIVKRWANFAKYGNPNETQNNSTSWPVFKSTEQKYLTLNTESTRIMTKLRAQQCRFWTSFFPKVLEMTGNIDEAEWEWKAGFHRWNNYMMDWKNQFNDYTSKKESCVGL

Sequence of Cholinesterase (Equus caballus, UniProt P81908) (P81908 whole entry): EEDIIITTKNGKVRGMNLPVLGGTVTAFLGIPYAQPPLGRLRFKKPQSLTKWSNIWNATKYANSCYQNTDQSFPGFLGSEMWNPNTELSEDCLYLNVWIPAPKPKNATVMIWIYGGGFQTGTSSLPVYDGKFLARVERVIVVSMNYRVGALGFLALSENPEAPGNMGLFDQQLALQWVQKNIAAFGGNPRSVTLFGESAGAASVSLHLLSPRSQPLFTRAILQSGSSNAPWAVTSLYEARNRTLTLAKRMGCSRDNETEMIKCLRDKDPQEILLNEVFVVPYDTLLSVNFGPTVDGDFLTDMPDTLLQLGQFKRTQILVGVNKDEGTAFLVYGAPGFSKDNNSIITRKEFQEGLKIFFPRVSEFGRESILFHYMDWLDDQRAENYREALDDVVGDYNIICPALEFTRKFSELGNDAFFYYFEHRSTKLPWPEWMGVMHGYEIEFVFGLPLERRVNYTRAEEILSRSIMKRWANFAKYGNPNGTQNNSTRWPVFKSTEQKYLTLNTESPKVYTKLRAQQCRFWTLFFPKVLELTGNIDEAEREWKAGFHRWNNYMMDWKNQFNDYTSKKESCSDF
Sequence of Acetylcholinesterase (Electrophorus electricus, UniProt O42275) (O42275 whole entry): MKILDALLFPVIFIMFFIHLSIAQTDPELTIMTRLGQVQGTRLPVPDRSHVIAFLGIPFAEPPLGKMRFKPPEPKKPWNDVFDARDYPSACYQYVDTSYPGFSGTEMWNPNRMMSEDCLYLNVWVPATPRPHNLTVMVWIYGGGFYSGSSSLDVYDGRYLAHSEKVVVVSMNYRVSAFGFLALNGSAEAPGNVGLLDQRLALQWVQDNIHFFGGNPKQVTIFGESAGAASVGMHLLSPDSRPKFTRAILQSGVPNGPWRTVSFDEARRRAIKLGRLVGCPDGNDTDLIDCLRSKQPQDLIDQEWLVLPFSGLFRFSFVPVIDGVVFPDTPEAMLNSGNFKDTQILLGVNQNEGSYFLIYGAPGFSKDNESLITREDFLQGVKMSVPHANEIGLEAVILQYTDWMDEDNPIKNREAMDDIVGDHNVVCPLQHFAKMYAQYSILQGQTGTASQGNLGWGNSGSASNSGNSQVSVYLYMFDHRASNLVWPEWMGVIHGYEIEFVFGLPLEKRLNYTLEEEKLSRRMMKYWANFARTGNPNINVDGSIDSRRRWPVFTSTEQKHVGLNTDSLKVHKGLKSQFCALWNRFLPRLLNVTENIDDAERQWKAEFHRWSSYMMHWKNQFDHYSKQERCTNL
Sequence of Acetylcholinesterase (Homo sapiens, UniProt P22303) (P22303 whole entry): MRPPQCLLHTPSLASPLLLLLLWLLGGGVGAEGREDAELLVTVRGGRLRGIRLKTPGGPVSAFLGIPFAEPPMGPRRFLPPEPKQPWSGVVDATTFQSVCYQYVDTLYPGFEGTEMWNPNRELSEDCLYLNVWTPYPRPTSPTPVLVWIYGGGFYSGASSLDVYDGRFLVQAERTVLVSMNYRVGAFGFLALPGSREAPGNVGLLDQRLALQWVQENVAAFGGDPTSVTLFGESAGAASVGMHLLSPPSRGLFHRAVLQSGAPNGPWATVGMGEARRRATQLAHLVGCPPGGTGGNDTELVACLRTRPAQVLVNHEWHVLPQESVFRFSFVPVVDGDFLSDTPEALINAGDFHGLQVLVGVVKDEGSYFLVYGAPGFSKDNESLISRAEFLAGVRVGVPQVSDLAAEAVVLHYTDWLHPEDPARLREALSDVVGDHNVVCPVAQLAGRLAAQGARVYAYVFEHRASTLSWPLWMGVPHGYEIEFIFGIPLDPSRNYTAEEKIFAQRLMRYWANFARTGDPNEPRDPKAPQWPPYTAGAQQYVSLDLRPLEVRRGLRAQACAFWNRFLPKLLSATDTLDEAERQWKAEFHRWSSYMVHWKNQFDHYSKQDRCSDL

Question: With `CCN(CC)CCOc1ccc(CC2CCn3c2nc2ccccc2c3=O)cc1` (stereo not drawn) as the molecule, how does the IC50 (Cholinesterase [1]) read?
Answer: The IC50 was greater than 20 µM.

Question: What about the IC50 (Acetylcholinesterase [2]) of the same molecule?
Answer: The IC50 was 1620 nM.

Question: How did the IC50 (Cholinesterase [1]) turn out when `O=c1c2ccccc2nc2n1CC/C2=C\c1ccc(OCCN2CCCCC2)cc1` was run?
Answer: Its IC50 is 2.99 µM.

Question: What about the IC50 (Acetylcholinesterase [2]) of the same molecule?
Answer: The IC50 was 160 nM.

Question: How did the IC50 (Cholinesterase [1]) turn out when `CCN(CC)CCCOc1ccc(CC2CCn3c2nc2ccccc2c3=O)cc1` (stereo not drawn) was run?
Answer: Its IC50 is greater than 20 µM.

Question: And the IC50 (Acetylcholinesterase [2])?
Answer: The IC50 was 8950 nM.

Question: Which IC50 (Cholinesterase [1]) does the source give for `O=c1c2ccccc2nc2n1CCC2Cc1ccc(OCCN2CCCCC2)cc1` (stereo not drawn) here?
Answer: Its IC50 is 8.29 µM.

Question: And the IC50 (Acetylcholinesterase [2])?
Answer: The IC50 was 750 nM.

Question: For `O=c1c2ccccc2nc2n1CC/C2=C\c1ccc(OCCCN2CCCCC2)cc1`, which IC50 (Cholinesterase [1]) is on record?
Answer: Its IC50 is 1.66 µM.

Question: And the IC50 (Acetylcholinesterase [2])?
Answer: Its IC50 is 720 nM.

Question: Which IC50 (Cholinesterase [1]) does the source give for `O=c1c2ccccc2nc2n1CCC2Cc1ccc(OCCCN2CCCCC2)cc1` (stereo not drawn) here?
Answer: Its IC50 is 5.72 µM.

Question: And the IC50 (Acetylcholinesterase [2])?
Answer: The IC50 was 5580 nM.

Question: Which IC50 (Cholinesterase [1]) does the source give for `CCN(CC)CCCOc1ccc(/C=C2\CCn3c2nc2ccccc2c3=O)cc1` here?
Answer: The IC50 was 7.12 µM.

Question: What about the IC50 (Acetylcholinesterase [2]) of the same molecule?
Answer: Its IC50 is 2410 nM.

Question: `CCN(CC)CCOc1ccc(/C=C2\CCn3c2nc2ccccc2c3=O)cc1` was tested. Which IC50 (Cholinesterase [1]) did it give?
Answer: Its IC50 is 12.7 µM.

Question: And the IC50 (Acetylcholinesterase [2])?
Answer: Its IC50 is 480 nM.

Question: How did the IC50 (Acetylcholinesterase [3]) turn out when `O=c1c2ccccc2nc2n1CCC2` [DEOXYVASICINONE] was run?
Answer: Its IC50 is 82.5 µM.

Question: What about the IC50 (Cholinesterase [4]) of the same molecule?
Answer: The IC50 was 25.1 µM.

From ChEMBL document CHEMBL1157445, “Design, synthesis and evaluation of isaindigotone derivatives as acetylcholinesterase and butyrylcholinesterase inhibitors” (Bioorg Med Chem Lett, 2008)
